Assay results published in patent publication US20230132973A1, “DIHYDRO-SPIRO[INDOLINE-3:1'-iSOQUINOLIN]-2-ONES AS ANTIMALARIAL AGENTS” (The University of Buea, priority 2020, published 2023).
Entries after “also recorded” stand apart in the source; their conditions may differ. Where two headings read alike, the source gives them in different places.

Legend:
[1] = test system: hemoglobin metabolism in P. falciparum ring and trophozoite stage parasites; assay: Effect on hemoglobin degradation (intraparasitic hemoglobin content); type: cell-based, Plasmodium falciparum; conditions: 10 μM, 24 h, relative to E64-treated cultures; listed as (±)-moxiquindole
Method: Owing to the fact that the DSIIQs are constructed from the THIQ pharmacophore of naphthylisoquinolines, which appear to target proteases involved in hemoglobin degradation, we assessed the effect of this DSIIQ on hemoglobin metabolism. Briefly, tightly synchronized ring and trophozoite stage parasites were treated with test compounds for 24 h followed by parasite isolation and quantification of the intraparasitic hemoglobin contents.
To investigate drug effects on hemoglobin degradation, early ring and mid-trophozoite stage parasites (1.5% hematocrit, 5% parasitemia) were co-cultured with the test compounds or experimental controls (0.1% DMSO, chloroquine, artemisinin NITD609 and E64) at a final concentration of 10 μM. The cultures were incubated at 37° C. and 5% CO2 for 24 h. Following incubation, inhibitors were removed by centrifugation at 1800 rpm for 5 min. The pellets were washed in an equal volume of 1×PBS and re-suspended in same volume of 0.1% saponin (in 1×PBS) for 3 min. Isolated parasites were pelleted at 2500 rpm for 5 min and washed twice in an equal volume of 1×PBS. The resulting parasite pellets were permeabilized by treatment in 20 μL of 1% Triton X-100 (in 1×PBS) for 5 min. Intraparasitic hemoglobin content was measured at 550 nm using a Nanodrop spectrophotometer, and folds increase in intra-parasite hemoglobin content was calculated relative to the E64-treated controls.

[2] = test system: Human Liposarcoma (SW872) cells; assay: MTT cell proliferation (cytotoxicity) assay, SW872 cells; type: cell-based
Method: (§1) By principle, the soluble MTT is reduced to an insoluble colored formazan product by mitochondrial succinate dehydrogenase in viable cells. Normal African Green Monkey Kidney Epithelial (Vero) and the Human Liposarcoma (SW872) cells were maintained in MEM supplemented with 10% FBS, 1% Glutamine and 1% penicillin-streptomycin. Confluent cells were trypsinized and seeded at a density of 2500 cells/well (total volume 90 μL) in 96-well plates and incubated for 24 h prior to drug treatment. Two-fold serial dilutions of the compounds (100-0.0488 μM) were added to the plates and incubated under humidified conditions at 37° C. for 48 h. Absorbance of the formed formazan product was measured at 550 nm wavelength using a SUNRISE microtiter plate reader. […] Selectivity indices (SI=CC50/EC50) were calculated as an indication of toxicity relative to the observed antiplasmodial activity.

[3] = test system: P. chabaudi-infected mice; assay: Peter's four-day suppressive test (chemosuppressive activity); type: in vivo, Swiss albino mice
Method: Following the encouraging in vitro antiplasmodial activities and cytotoxicity profiles reported above, as well as the ADMET properties of the primary and secondary hits identified in this study, studies were carried out to assess the in vivo efficacy of these compounds in laboratory mice. Chemosuppressive potentials were assessed using the Peter's four-day test whereas the ability of each compound to cure an established plasmodial infection was determined using the Rane's test. To assess the in vivo chemosuppressive potential of the compounds, groups of P. chabaudi-infected mice were treated by ip injection for 3 days following infection using fixed doses of 0.03, 0.3, 3, 10, or 30 mg/kg for each compound. The percent suppression of parasite growth in treated groups was calculated relative to the control group and the growth inhibition curves plotted.
Eight-week old male Swiss albino mice weighing approximately 23±3 g were housed in cages and maintained in a well-ventilated room under standard environmental conditions of temperature at 22-24° C., under a 12 h dark-light cycle, with food and water provided ad libitum.
The animals were allowed one week acclimation before commencement of the study. Three (3) mice were infected with stocked blood containing Plasmodium chabaudi parasites and used as donors. In brief, frozen blood containing the sulfadoxine/pyrimethamine resistant P. c. chabaudi (AS(50S/P) parasites was thawed and about 200 μL parasites were injected intra-peritoneally (i.p) into each of the three mice and parasitemia monitored through blood smear until a 20% threshold was reached. These infected animals then served as donors to the experimental animals. Ethical approval for the study was obtained from the University of Douala Institutional Review Board (N^oIEC-UD/1146/09/2017/A).
In vivo efficacies were conducted following a modification of the Peter's four-day suppressive test as previously described (Lee et al., 2014, Tarkang et al., 2014). Briefly, following parasite passage in donor mice, the mice were euthanized using diethyl ether and P. c. chabaudi infected blood was obtained by cardiac puncture and placed into heparinized tubes. The blood was then diluted with phosphate buffered saline (PBS) and immediately used to infect the experimental mice. Mice were randomly divided into seven (7) groups of 3 animals and each mouse was injected with 1×10^7 infected erythrocytes intraperitoneally (Day 0). The mice were kept for 24 hours to establish infection and Giemsa thin blood smears were prepared to quantify parasites (Day 1). Thereafter, groups 1, 2, 3, 4 and 5 were treated with compounds dissolved in 1×PBS, intraperitoneally at dosages of 30, 10, 3, 0.3 and 0.03 mg/kg body weight, respectively, while groups 6 and 7 were treated with vehicle or chloroquine at 10 mg/kg, respectively for three consecutive days (Day 1-Day 3). Twenty-four (24) and ninety-six (96) hours post-infection, thin blood smears were prepared from each animal with blood obtained from the tail vein, fixed in methanol and stained with 10% Giemsa.
Parasitemia was determined by light microscopy using a 100× objective lens and the following equation: […]
Average percentage chemosuppression was calculated as
Where A is mean parasitemia in negative control and B is mean parasitemia in test group

[4] = test system: CQ-sensitive 3D7 strain of P. falciparum; assay: SYBR green I-based parasite growth inhibition assay, 3D7 strain; type: cell-based, Plasmodium falciparum; conditions: for EC50: 72 h, read-out: EC50
[5] = test system: Normal African Green Monkey Kidney Epithelial (Vero) cells; assay: MTT cell proliferation (cytotoxicity) assay, Vero cells; type: cell-based
Method: as §1

[6] = test system: Malaria parasites (ring-stage parasitized erythrocytes); assay: Drug-combination (drug-drug interaction) studies, SYBR-Green I; type: cell-based, Plasmodium falciparum
Method: In view of the overlapping modes of action between the hybrids and some known antimalarial drugs in terms of targeted cellular processes, we investigated the interaction between these compounds at variable combination ratios. Malaria parasites were continuously cultured and synchronized as earlier described prior to the assay.
Briefly, two-fold drug dilutions were prepared using a variable potency ratio drug combination approach, starting at 5EC50A: 0EC50B to 0EC50A: 5EC50B in serum-free medium, where A and B represent the different partner molecules.
The test was run for 72 h and terminated when the untreated parasites were at the early trophozoite stage of the second cycle. Parasite viability was assessed by the SYBR-Green I fluorescence-based assay as earlier described. Dose-response curves and EC50 values of each combination and drug alone were obtained using GraphPad Prism v.5.0 and Microsoft Excel was used to calculate mean EC50 values and the standard error of the mean.

For COc1cc2c(cc1OC)C1(NCC2)C(=O)Nc2ccc(Cl)cc21 (stereo not shown) [Compound 8b], the “intraparasitic hemoglobin content / accumulation” value [1] was “significantly higher; also recorded: accumulation of intra-parasitic hemoglobin”, the CC50 ([2]; SW872, MTT) was greater than 100000 nM and the cell viability ([2]; SW872, up to 100 μM compound concentration, 48 h) was “no significant decrease in cell viability”. For the same compound, the suppression of parasitemia ([3]; 3.0 mg/kg ip) was 98%, the “suppressive ED50” value ([3]; ip, 3 days, P. chabaudi-infected mice) was 0.25 mg/kg and the “dose-response curve within the tested drug concentration range” value ([4]; Pf 3D7, 0.078 μM to 10 μM) was “complete sigmoidal dose-response curve”. The EC50 ([4]; Pf 3D7, 0.078 μM to 10 μM, listed as (±)-moxiquindole) was 1850 nM, the EC50 ([4]; Pf 3D7, 0.078 μM to 10 μM) was less than 2000 nM and the “parasite growth inhibition in primary assays” value ([4]; primary screening at 10 μM, Pf 3D7, 72 h) was roughly 97%. For the same compound, the CC50 ([5]; MTT) was greater than 100000 nM, the cell viability ([5]; up to 100 μM compound concentration, 48 h) was “no significant decrease in cell viability” and the “combination index (CI)” value ([6]; in combination with artemisinin) was 1.440. For the same compound, the “combination index (CI)” value ([6]; in combination with chloroquine) was 1.478.
